Test results published in patent US20190079094A1, “SUBCELLULAR LOCALIZATION OF TARGET ANALYTES” (Beckman Coulter, Inc., priority 2016, published 2019).
Entries after “also recorded” stand apart in the source; their conditions may differ.

Assays:
Type in all cases: cell-based
[1] = test system: NF-κB and AKT signaling in whole-blood monocytes and T cells; test: LPS stimulation of whole blood, cytoplasmic vs. nuclear signaling; conditions: 1 μg/mL LPS
Description: FIGS. 7A and 7B. Stimulation of Monocytes with 1 μg/mL LPS. A) Comparison of the scatter profiles between Buffer 1 and Buffer 2 lysis, as well as the gating workflow. B) Cytoplasmic vs. nuclear signaling in whole-blood monocytes. C) Cytoplasmic vs. nuclear signaling in T cells.
(§1) The protocol for processing whole blood samples is as follows (see FIG. 1 for a workflow): 1) The sample is first mixed 1:1 with fixative, vortexed, and then incubated for 10 minutes. An extra control tube is included for each buffer, which is stained with all antibodies except for the specific signaling or target antibodies being tested in order to subtract the background signal. […] 6) Once stained, the samples are again washed 2× with PBS or wash buffer, resuspended in PBS+0.5% PFA, and read on a flow cytometer.
(§2) After data acquisition, the samples are gated, compensated, and analyzed as standard flow cytometry samples. […] For example, if staining for the subcellular distribution of FoxP3, where the Background MFIs for the Cytoplasm and Whole Cell are 1.5 and the raw FoxP3 signal is 3.5 and 31.5 for the Cytoplasm and Whole Cell, respectively, then the Cytoplasmic MFI would be calculated to be 2 (i.e., 3.5 (raw)−1.5 (background)=2) and the Nuclear MFI would be calculated to be 28 (i.e., 31.5 (raw)−1.5 (background)−2 (Cytoplasm)=28). […]

[2] = test system: CREB, RelA and ERK phosphorylation in monocytes; test: Stimulation of monocytes with LPS or GM-CSF, cytoplasmic vs. nuclear signaling; conditions: primarily cytoplasm, 1 μg/mL LPS or 100 ng/mL GM-CSF
Description: FIG. 8. Differential Signaling in Monocytes Induced by 1 μg/mL LPS vs. 100 ng/mL GM-CSF. A) Both LPS and GM-CSF induced CREB phosphorylation at S133, accumulating maximally in the nucleus by 10 min. B) LPS stimulation induced RelA phosphorylation maximally by 10 min in both the cytoplasm and nucleus, though predominantly in the nucleus. C) Both LPS and GM-CSF stimulated ERK phosphorylation primarily in the cytoplasm, maximally by 5 min for GM-CSF and 10 min for LPS.
as §1, with “signal. The background control may also be labeled with isotype-control antibodies for more precise determination of non-specific binding, especially in cells that have characteristically high non-specific binding, such as neutrophils. For indirect antibody labeling, omitting the primary antibody, but still utilizing the secondary antibody, is a common method for determining the degree of non-specific background signal attributable to the secondary antibody, which is typically higher than the direct conjugates of target antibodies.” for “signal.”
as §2

granulocytes = test: Detergent titration for differential permeabilization of granulocytes (HSP60, Lamin A/C); conditions: detergent alone
Text: FIG. 6. Titration of Detergents In Order to Identify the Optimal Concentrations for Cytoplasmic vs. Nuclear Membrane Permeabilization of Granulocytes. […] As in FIG. 5, HSP60 and Lamin A/C were used to indicate the degree of mitochondrial inner membrane and nuclear membrane permeabilization, respectively.
For Peripheral Blood Mononuclear Cells (PBMCs), cell lines, and other purified cells, Buffer 1 and Buffer 2 have different compositions than for whole blood; however, the protocol is otherwise the same. Most cell lines perform similar to PBMCs. In addition, whole-blood granulocytes may require a different buffer combination to appropriately permeabilize their cytoplasmic vs. nuclear compartments.
In some cases, using the defined buffers for the Subcellular Localization Kit may not effectively and reproducibly permeabilize granulocytes as they do mononuclear cells, and can be better targeted with a different detergent combination. […] Tween 20 at a concentration >0.5% can be seen to permeabilized the cytoplasmic+mitochondrial membranes without permeabilizing the nuclear membrane, while Digitonin and TX-100 alone at lower concentrations will permeabilize the nuclear or mitochondrial membranes, respectively. Ultimately, differential permeabilization of granulocytes can be more complex than for mononuclear cells depending on the target organelles.

Compound	signaling induced in T cells [1]	time of peak ERK phosphorylation (S202/T204) [2] [min]	concentration permeabilizing the cytoplasmic+mitochondrial membranes without the nuclear membrane (granulocytes) [%]
lipopolysaccharide [LPS]	did not stimulate T cells; also recorded: lack of any signaling induced in T cells	≤ 10	
CCCCCCCCCCCC(=O)OCCOCCOCCOCCOCCOCCOCCOCCOCCOCCOCCOCCOCCOCCOCCOCCOCCOCCOCCOCCOCC(OCCOCCOCCOCCOCCOCCOCCOCCOCCOCCOCCOCCOCCOCCOCCOCCOCCOCCOCCOCCO)C1OCC(OCCOCCOCCOCCOCCOCCOCCOCCOCCOCCOCCOCCOCCOCCOCCOCCOCCOCCOCCOCCO)C1OCCOCCOCCOCCOCCOCCOCCOCCOCCOCCOCCOCCOCCOCCOCCOCCOCCOCCOCCOCCO (stereo not drawn) [Tween 20, Polysorbate 20]			> 0.5
